Columns and labels:
glucocorticoid receptor = target: T1, glucocorticoid receptor (Homo sapiens, UniProt P04150); test: Glucocorticoid receptor binding assay (fluorescence polarisation); conditions: competition with Alexa 555 fluorescently-labelled dexamethasone derivative, full length glucocorticoid receptor; read-out: glucocorticoid binding pIC50 (converted)
T1 construct: a partially purified full length glucocorticoid receptor
T1 sequence (P04150 1-777): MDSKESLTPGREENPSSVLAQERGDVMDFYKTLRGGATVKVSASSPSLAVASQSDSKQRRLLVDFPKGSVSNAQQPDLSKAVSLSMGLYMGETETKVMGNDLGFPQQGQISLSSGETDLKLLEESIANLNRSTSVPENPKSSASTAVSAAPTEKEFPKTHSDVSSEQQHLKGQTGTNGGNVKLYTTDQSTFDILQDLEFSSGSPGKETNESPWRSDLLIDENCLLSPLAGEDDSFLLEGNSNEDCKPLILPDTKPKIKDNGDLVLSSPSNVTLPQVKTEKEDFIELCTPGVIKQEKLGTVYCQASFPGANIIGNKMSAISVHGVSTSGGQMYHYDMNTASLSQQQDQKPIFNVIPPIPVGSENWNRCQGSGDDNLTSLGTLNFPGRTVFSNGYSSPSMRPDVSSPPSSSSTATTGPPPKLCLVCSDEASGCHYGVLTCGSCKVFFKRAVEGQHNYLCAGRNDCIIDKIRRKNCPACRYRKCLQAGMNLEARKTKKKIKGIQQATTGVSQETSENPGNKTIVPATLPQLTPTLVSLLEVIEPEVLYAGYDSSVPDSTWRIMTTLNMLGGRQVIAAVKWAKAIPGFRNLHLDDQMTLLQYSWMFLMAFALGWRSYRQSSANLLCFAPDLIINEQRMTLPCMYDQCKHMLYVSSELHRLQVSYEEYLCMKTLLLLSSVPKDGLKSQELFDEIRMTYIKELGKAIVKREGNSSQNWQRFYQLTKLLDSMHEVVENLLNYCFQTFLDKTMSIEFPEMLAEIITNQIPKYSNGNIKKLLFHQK
Method: Compounds were solvated and diluted in DMSO, and transferred directly into assay plates. Fluorescent dexamethasone and a partially purified full length glucocorticoid receptor were added to the plates, together with buffer components to stabilise the GR protein and incubated at room temperature for 2 hrs in the dark. Binding of each compound was assessed by analysing the displacement of fluorescent ligand by measuring the decrease in fluorescence polarisation signal from the mixture. Dose response curves were constructed from which pIC50 values were estimated.

MMTV promoter = test: MMTV agonist assay in A549 MMTV cells; format: cell-based; conditions: Homo sapiens, A549, 6 h, >85% = full agonist, >20% and <85% = partial or efficacy selective agonist, read-out: average maximum asymptote in the MMTV agonist assay
Description: (§1) Human lung carcinoma A549 cell line (ECACC No. 86012804) has been stably transfected in house with a plasmid containing a renilla luciferase reporter with an MMTV promoter. Stimulation of the cell line with GR agonists results in intracellular signal transduction and ultimately translocation of GR into the nucleus. This activates the inserted DNA sequence resulting in transcription of the integrated luciferase gene, which is quantified using a light emission. The stably transfected cell line was grown as a monolayer in DMEM supplemented with FCS-HI (10%), Non-essential amino acids (1%), L-Glutamine (2 mM), Pen/Strep (1%) and Geneticin (50 mg/ml).
A 90% confluent T175 flask of A549 MMTV cells was harvested by centrifugation for 5 min at 200 g, resuspended in assay buffer (DMEM supplemented with 10% FCS 2×HI, 2 mM Glutamax, Non essential amino acids and 25 mM HEPES) and diluted to 0.1×10^6/ml. 70 μl of cell solution was dispensed to each well of white Nunc 384-well plates, containing compound at the required concentration. Plates were incubated for 6 h at 37° C., 95% humidity, 5% CO2. Plates were equilibrated to room temperature for 1 h prior to the addition of 10 μl of Renilla substrate to each well of assay plates. The plates were covered to protect the reagents from light, and then incubated at room temperature for approximately 15 mins before reading them on a Viewlux. Dose response curves were constructed from which pEC50 and maximum asymptote values were estimated.

NFκB = NFκB agonist assay in A549 SPAP cells; format: cell-based; conditions: Homo sapiens; for Emax: A549, A549 SPAP cells, >85% = full agonist, ≧20% = partial or full agonist, read-out: average maximum asymptote in the NFkB assay; for IC50: A549 SPAP cells, TNFα 3.2 ng/ml, read-out: pIC50 for the NFkB assay (converted);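 as to average maximum asymptote in the NFkB assay: maximum inhibition of the TNFα-induced NFκB-driven signal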
Description: as §1, with “containing an ELAM promoter sequence that has” for “containing”, “NFκB response element within it.” for “renilla luciferase reporter with an MMTV promoter.”, “TNFα” for “GR agonists”, “NFκB” for “GR”, “SPAP” for “luciferase”, “colorimetric assay. […]” for “light emission.”
A 70% confluent T225 flask of A549 SPAP cells was harvested by centrifugation for 5 min at 200 g, resuspended in assay buffer (DMEM supplemented with 10% FCS 2×HI, 2 mM L-Glutamine, 1% Pen/Strep and Non essential amino acids) and diluted to 0.16×10^6/ml. 60 μl of cell solution was dispensed to each well of clear Nunc 384-well plates, containing compound at the required concentration. Plates were incubated for 1 h at 37° C., 95% humidity, 5% CO2 before 10 μl of TNFα was added at final concentration of 3.2 ng/ml and then returned to the cell incubator for 15 h. Plates were equilibrated to room temperature for 1 h prior to the addition of 25 μl of pNPP buffer (1M Diethanolamine pH 9.8, 0.5 mM MgCl2, 0.28M NaCl, 2 mg/ml pNPP) to each well of assay plates. The plates were covered to protect the reagents from light, and then incubated at room temperature for approximately 1 hour before reading them on an Ascent using a 405 nm single filter. Dose response curves were constructed from which pIC50 values were estimated.

progesterone receptor = target: T2, progesterone receptor (Homo sapiens, UniProt P06401); test: Assay for progesterone receptor activity (CV-1 cells, PRb-BacMam/MMTV-BacMam); format: cell-based; conditions: CV-1 cells transduced with PRb-BacMam and MMTV-BacMam; read-out: pEC50 progesterone receptor activity (converted)
T2 construct: expressed in transfected cells; host or cells: CV-1 cells transduced with PRb-BacMam and MMTV-BacMam
T2 sequence (P06401 1-933): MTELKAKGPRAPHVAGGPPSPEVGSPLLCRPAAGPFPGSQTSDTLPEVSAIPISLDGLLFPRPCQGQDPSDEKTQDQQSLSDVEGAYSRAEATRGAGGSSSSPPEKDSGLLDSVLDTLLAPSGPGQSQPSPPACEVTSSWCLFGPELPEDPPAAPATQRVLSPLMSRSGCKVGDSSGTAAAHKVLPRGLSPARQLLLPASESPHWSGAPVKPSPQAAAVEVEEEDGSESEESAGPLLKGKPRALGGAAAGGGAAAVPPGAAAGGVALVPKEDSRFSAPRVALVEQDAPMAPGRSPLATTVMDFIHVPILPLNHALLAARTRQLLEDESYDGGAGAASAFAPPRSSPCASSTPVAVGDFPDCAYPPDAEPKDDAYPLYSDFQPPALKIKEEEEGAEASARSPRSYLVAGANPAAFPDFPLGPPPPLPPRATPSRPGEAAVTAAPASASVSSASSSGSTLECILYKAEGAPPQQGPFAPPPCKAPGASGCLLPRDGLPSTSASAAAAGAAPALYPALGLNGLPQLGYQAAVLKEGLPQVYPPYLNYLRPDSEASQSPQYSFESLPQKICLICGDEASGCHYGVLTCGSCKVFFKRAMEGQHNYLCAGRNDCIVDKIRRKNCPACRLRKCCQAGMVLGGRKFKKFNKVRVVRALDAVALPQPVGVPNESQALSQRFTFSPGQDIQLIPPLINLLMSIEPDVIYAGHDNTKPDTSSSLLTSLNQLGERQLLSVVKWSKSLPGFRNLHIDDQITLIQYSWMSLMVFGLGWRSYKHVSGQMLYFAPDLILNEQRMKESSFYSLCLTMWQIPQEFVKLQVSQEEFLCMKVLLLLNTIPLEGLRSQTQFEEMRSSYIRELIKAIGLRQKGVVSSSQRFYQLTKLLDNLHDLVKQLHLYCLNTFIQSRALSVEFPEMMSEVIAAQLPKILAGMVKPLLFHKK
Method: A T225 flask of CV-1 cells at a density of 80% confluency was washed with PBS, detached from the flask using 0.25% trypsin and counted using a Sysmex KX-21N. Cells were diluted in DMEM containing 10% Hyclone, 2 mM L-Glutamate and 1% Pen/Strep at 140 cells/μl and transduced with 10% PRb-BacMam and 10% MMTV-BacMam. […] of suspension cells were dispensed to each well of white Nunc 384-well plates, containing compounds at the required concentration. After 24 h 10 μl of Steadylite were added to each well of the plates. Plates were incubated in the dark for 10 min before reading them on a Viewlux reader. Dose response curves were constructed from which pEC50 values were estimated.

[1] = Assay for brain penetrance; format: in vivo; conditions: brain and plasma, rat, single intravenous dose 1 mg/kg, read-out: brain to plasma ratio
Method: Each rat received a single intravenous dose at a level of 1 mg/kg. The dose was formulated in 10% DMSO/50% PEG200/40% sterile water. Terminal blood samples were taken at 5 or 15 minutes after dosing, by cardiac puncture following anaesthesia with isofluorane. The brains were removed at the same time point.
The compounds were extracted from 20 μL plasma by protein precipitation using 120 μL acetonitrile containing an analogue compound as an internal standard. The filtered extracts were collected into a 96 well plate and were diluted with an equal volume of 10% acetonitrile containing 0.1% formic acid in water (v/v). The plate was then mixed on a plate shaker for at least 5 minutes before analysis by LC-MS/MS against a calibration line prepared in control plasma.
Each brain was weighed, then homogenised in 3 ml acetonitrile:water (10:90 v/v). The compounds were extracted from 200 μL of the resulting homogenate by protein precipitation using 600 μL acetonitrile containing an analogue compound as an internal standard. The extracts were centrifuged and 150 μl of each was filtered and transferred to a 96 well plate. The aliquot was diluted with 10% acetonitrile containing 0.1% formic acid in water (v/v). The plate was mixed on a plate shaker for at least 5 minutes before analysis by LC-MS/MS against a calibration line prepared in control brain homogenate.

SMILES | IC50 (glucocorticoid receptor) | Emax (MMTV promoter) | Emax (NFκB) | IC50 (NFκB) | EC50 (progesterone receptor) | Kp at 5 min [1]
Nc1c(C(=O)NCC(O)(CN(CCF)C(=O)c2c(F)cccc2Cl)C(F)(F)F)cnn1-c1ccc(F)cc1 (racemic) [Example 29 (racemic), 5-amino-N-(2-{[[(2-chloro-6-fluorophenyl)carbonyl](2-fluoroethyl)amino]methyl}-3,3,3-trifluoro-2-hydroxypropyl)-1-(4-fluorophenyl)-1H-pyrazole-4-carboxamide] | ≤ 316 nM | > 85% | > 85% | < 1000 nM | – | –
Nc1c(C(=O)NCC(O)(CNC(=O)c2c(Cl)cccc2C(F)(F)F)C(F)(F)F)cnn1-c1ccc(F)cc1 (racemic) [Example 44 (racemic), 5-Amino-N-{2-[({[2-chloro-6-(trifluoromethyl)phenyl]carbonyl}amino)methyl]-3,3,3-trifluoro-2-hydroxypropyl}-1-(4-fluorophenyl)-1H-pyrazole-4-carboxamide] | ≤ 316 nM | 20 to 85% | ≥ 20% | < 1000 nM | – | –
CCN(CC(O)(CNC(=O)c1cnn(-c2ccc(F)cc2)c1N)C(F)(F)F)C(=O)c1c(F)cccc1F (single isomer, unassigned) [Example 5 Enantiomer 1, 5-Amino-N-(2-{[[(2,6-difluorophenyl)carbonyl](ethyl)amino]methyl}-3,3,3-trifluoro-2-hydroxypropyl)-1-(4-fluorophenyl)-1H-pyrazole-4-carboxamide] | ≤ 316 nM | – | – | < 1000 nM | > 1000 nM | ≥ 0.1
Nc1c(C(=O)NCC(O)(CNC(=O)c2c(F)cccc2C(F)(F)F)C(F)(F)F)cnn1-c1ccc(F)cc1 (single isomer, unassigned) [Example 19 Enantiomer 1, 5-amino-1-(4-fluorophenyl)-N-{3,3,3-trifluoro-2-[({[2-fluoro-6-(trifluoromethyl)phenyl]carbonyl}amino)methyl]-2-hydroxypropyl}-1H-pyrazole-4-carboxamide] | ≤ 316 nM | 20 to 85% | ≥ 20% | < 1000 nM | – | –
CCN(CC(O)(CNC(=O)c1cnn(-c2ccccc2Cl)c1N)C(F)(F)F)C(=O)c1c(F)cccc1F (racemic) [Example 40 (racemic), 5-amino-1-(2-chlorophenyl)-N-(2-{[[(2,6-difluorophenyl)carbonyl](ethyl)amino]methyl}-3,3,3-trifluoro-2-hydroxypropyl)-1H-pyrazole-4-carboxamide] | ≤ 316 nM | > 85% | > 85% | < 1000 nM | – | –
Nc1c(C(=O)NCC(O)(CNC(=O)c2c(C(F)(F)F)cccc2C(F)(F)F)C(F)(F)F)cnn1-c1ccc(F)cc1 (single isomer, unassigned) [Example 15 Enantiomer 1, 5-amino-N-{2-[({[2,6-bis(trifluoromethyl)phenyl]carbonyl}amino)methyl]-3,3,3-trifluoro-2-hydroxypropyl}-1-(4-fluorophenyl)-1H-pyrazole-4-carboxamide] | ≤ 316 nM | 20 to 85% | ≥ 20% | – | > 1000 nM | –

Source: patent US8247377B2, “Non-steroidal glucocorticoid inhibitors and their use in treating inflammation, allergy and auto-immune conditions” (Glaxo Group Limited, priority 2006, dated 2012)
